Experimental data: US20240335407A1, “PHARMACEUTICAL COMPOSITION AND USE THEREOF” (NEURODAWN PHARMACEUTICAL CO., LTD., priority 2021, published 2024)

What was measured:
[1] = system: neuropathic pain induced by separate L5 spinal nerve ligation (SNL); assay: Mechanical pain threshold (MWT) in the L5 spinal nerve ligation (SNL) model of neuropathic pain, with synergy analysis (Jin Zhengjun q, CompuSyn CI); assay type: in vivo, Sprague-Dawley (SD) rats; conditions: Example 1, Mean ± SEM
Experimental: In this experiment, the model of neuropathic pain induced by separate L5 spinal nerve ligation (SNL) was adopted. Animals were anesthetized with 7% chloral hydrate (dosage: 420 mg/kg, intraperitoneal injection), and the limbs of rats were fixed in a prone position. The rats were placed under dissecting microscope with the back hair-cut off, then wiped and disinfected with alcohol. An incision about 2-3 cm long was cut on the right side of the dorsal spine, and the two spinal nerves L4 and L5 were exposed, the spinal nerve L5 was lightly ligated with 6-0 braided line to avoid damage to the contiguous spinal nerves. Double-layer suture was performed on the back incisions of the experimental animals, and disinfected with iodophor, then the experimental animals were gently put into a feeding cage, allowed to free access to movement, eating and drinking.
Mechanical withdrawal threshold (MWT) of all experimental animals was measured by mechanical automatic stimulated needle. The experimental animals were placed in a transparent plexiglass box with iron gauze at the bottom, and after acclimatization for 30 minutes, the vola of the hind limbs of the experimental animals were stimulated with a stimulated needle at a uniform speed, and the reaction threshold when rats rapidly retracted or shook their feet was recorded (as MWT), which was the mechanical pain threshold of the animals.
The basic mechanical pain threshold of each experimental animal was measured for 2 days […], and the basic mechanical pain threshold of experimental animals was the average of two values. […]
The L5-SNL model was prepared by selecting SD rats with appropriate weight, and the measurement of postoperative mechanical pain threshold was started at least 7 days after modeling. […] The experimental model animals were administered corresponding drugs or solvents, and the mechanical pain threshold of animals was measured at 0.5 h and 3 h after administration. […]

[2] = system: neuropathic pain induced by separate L5 spinal nerve ligation (SNL); assay: as above; assay type: in vivo, Sprague-Dawley (SD) rats; conditions: Mean ± SEM
[3] = Example 1, 0.5 mg/kg intraperitoneal
[4] = Example 2, 1 mg/kg intraperitoneal
[5] = Example 2, 10 mg/kg intraperitoneal
[6] = Example 3, 3 mg/kg intraperitoneal
[7] = Example 3, 12 mg/kg intraperitoneal
[8] = Example 4, 3 mg/kg intraperitoneal
[9] = Example 4, 6 mg/kg intraperitoneal
[10] = Example 4, 12 mg/kg intraperitoneal
[11] = Example 5, 3 mg/kg intraperitoneal
[12] = Example 5, 6 mg/kg intraperitoneal
[13] = Example 6, 6 mg/kg intraperitoneal
[14] = Example 6, 7.5 mg/kg intraperitoneal
[15] = Example 6, 10 mg/kg intraperitoneal
[16] = Example 2, 20 mg/kg intraperitoneal
[17] = Example 3, 18 mg/kg intraperitoneal
[18] = Example 3, 30 mg/kg intraperitoneal
[19] = Example 4, 9 mg/kg intraperitoneal
[20] = Example 4, 18 mg/kg intraperitoneal
[21] = Example 5, 9 mg/kg intraperitoneal

## Nc1nc2ccc(OC(F)(F)F)cc2s1 [riluzole]
[1]; 0.5 mg/kg intraperitoneal, 3 h
  pain threshold at 3 h after administration: 14.04 ± 0.91 g
[1]; 10 mg/kg intraperitoneal
  pain threshold at 0.5 h after administration: 21.56 ± 1.24 g
[2]; [3]
  pain threshold at 0.5 h after administration: 14.25 ± 0.90 g
[2]; Example 1, 10 mg/kg intraperitoneal
  pain threshold at 3 h after administration: 19.87 ± 0.92 g
[2]; [4]
  pain threshold at 0.5 h after administration: 14.08 ± 0.92 g
  pain threshold at 3 h after administration: 14.01 ± 0.99 g
[2]; [5]
  pain threshold at 0.5 h after administration: 21.79 ± 1.33 g
  pain threshold at 3 h after administration: 20.63 ± 1.12 g
[2]; [6]
  pain threshold at 0.5 h after administration: 15.48 ± 0.92 g
  pain threshold at 3 h after administration: 15.16 ± 1.31 g
[2]; [7]
  pain threshold at 0.5 h after administration: 22.54 ± 1.33 g
  pain threshold at 3 h after administration: 21.69 ± 1.12 g
[2]; [8]
  pain threshold at 0.5 h after administration: 15.43 ± 0.69 g
  pain threshold at 3 h after administration: 15.03 ± 0.79 g
[2]; [9]
  pain threshold at 0.5 h after administration: 18.47 ± 0.37 g
  pain threshold at 3 h after administration: 17.47 ± 0.73 g
[2]; [10]
  pain threshold at 0.5 h after administration: 22.54 ± 1.33 g
  pain threshold at 3 h after administration: 21.69 ± 1.12 g
[2]; [11]
  pain threshold at 0.5 h after administration: 15.35 ± 0.58 g
  pain threshold at 3 h after administration: 14.98 ± 0.84 g
[2]; [12]
  pain threshold at 0.5 h after administration: 18.21 ± 0.47 g
  pain threshold at 3 h after administration: 17.45 ± 0.46 g
[2]; [13]
  pain threshold at 0.5 h after administration: 22.96 g
  pain threshold at 3 h after administration: 15.74 ± 0.93 g
  pain threshold at 6 h after administration: 15.08 ± 0.77 g
  pain threshold at 8 h after administration: 14.95 ± 0.81 g
[2]; [14]
  pain threshold at 3 h after administration: 16.44 ± 1.07 g
  pain threshold at 6 h after administration: 16.52 ± 1.06 g
  pain threshold at 8 h after administration: 15.49 ± 1.18 g
[2]; [15]
  pain threshold at 3 h after administration: 17.89 ± 1.16 g
  pain threshold at 6 h after administration: 17.46 ± 1.23 g
  pain threshold at 8 h after administration: 16.93 ± 1.15 g

## CC(C)C[C@H](CN)CC(=O)O [pregabalin, (S)-3-aminomethyl-5-methylhexanoic acid]
[1]; 25 mg/kg intraperitoneal
  pain threshold at 0.5 h after administration: 17.41 ± 0.58 g
[2]; [3]
  pain threshold at 0.5 h after administration: 15.48 ± 1.27 g
  pain threshold at 3 h after administration: 15.54 ± 1.15 g
[2]; Example 1, 25 mg/kg intraperitoneal
  pain threshold at 3 h after administration: 24.65 ± 0.34 g
[2]; [4]
  pain threshold at 0.5 h after administration: 15.57 ± 1.04 g
  pain threshold at 3 h after administration: 15.68 ± 1.32 g
[2]; [16]
  pain threshold at 0.5 h after administration: 17.04 ± 0.54 g
  pain threshold at 3 h after administration: 24.76 ± 0.73 g
[2]; [6]
  pain threshold at 0.5 h after administration: 15.19 ± 1.31 g
  pain threshold at 3 h after administration: 16.75 ± 1.14 g
[2]; [17]
  pain threshold at 0.5 h after administration: 16.36 ± 1.35 g
  pain threshold at 3 h after administration: 23.92 ± 1.30 g
[2]; [18]
  pain threshold at 0.5 h after administration: 18.05 ± 0.73 g
  pain threshold at 3 h after administration: 26.13 ± 0.91 g
[2]; [8]
  pain threshold at 0.5 h after administration: 15.24 ± 0.95 g
  pain threshold at 3 h after administration: 16.96 ± 1.22 g
[2]; [19]
  pain threshold at 0.5 h after administration: 15.03 ± 1.21 g
  pain threshold at 3 h after administration: 21.13 ± 1.13 g
[2]; [20]
  pain threshold at 0.5 h after administration: 16.26 ± 0.74 g
  pain threshold at 3 h after administration: 24.54 ± 0.56 g
[2]; [11]
  pain threshold at 0.5 h after administration: 15.35 ± 0.57 g
  pain threshold at 3 h after administration: 16.73 ± 1.15 g
[2]; [12]
  pain threshold at 0.5 h after administration: 15.24 ± 1.15 g
  pain threshold at 3 h after administration: 19.15 ± 1.21 g
[2]; [21]
  pain threshold at 0.5 h after administration: 15.78 ± 0.83 g
  pain threshold at 3 h after administration: 21.66 ± 0.79 g
[2]; [13]
  pain threshold at 0.5 h after administration: 17.39 ± 1.26 g
  pain threshold at 3 h after administration: 19.62 g
  pain threshold at 6 h after administration: 19.49 g
  pain threshold at 8 h after administration: 19.26 g
[2]; Example 6, 20 mg/kg intraperitoneal
  pain threshold at 0.5 h after administration: 17.53 ± 1.33 g
[2]; Example 6, 30 mg/kg intraperitoneal
  pain threshold at 0.5 h after administration: 18.65 ± 1.24 g
